Structures can show the parent of a compound that is named as a salt.
Columns and labels:
EGFR (L858R T790M C797S) = target: T1, EGFR (L858R T790M C797S) (Homo sapiens, UniProt P00533, C797S/L858R/T790M); assay: Biochemical EGFR inhibition assay (Caliper mobility shift), EGFR LRTMCS mutant; conditions: LRTMCS (PH) IC50 (nM) @ 1 mM ATP (Num)
T1 construct: purchased SignalChem E10-122VG
Description: Reactions proceeded until between 10% to 20% total peptides were phosphorylated at room temperature (25° C.) and were terminated with 35 mM 2,2′,2″,2′″-(ethane-1,2-diyldinitrilo)tetraacetic acid (EDTA). Product was detected using the Caliper mobility shift detection method where the phosphorylated peptide (product) and substrate were electrophoretically separated and measured. Percent activity was plotted against log concentration of compound and points to generate an apparent IC50.

[1] = target: T2, EGFR L858R T790M in NCI-H1975 cell line (Homo sapiens, UniProt P00533, L858R/T790M); assay: NCI-H1975 pEGFR AlphaLISA assay; assay type: cell-based; conditions: NCI-H1975 cells (EGFR L858R T790M), p-EGFR (Tyr1068), 4-5 hours incubation; read-out: Ext pEGFR H1975 GMean IC50 (nM) Protocol: @Pharmaron AlphaLISA (Num)
T2 construct: host or cells: NCI-H1975
Description: The NCI-H1975 cells were seeded at 12.5K/well in 22 μL into 384 well opti plate (PerkinElmer, 6007299) and adhering overnight at 37C/5% CO2. On the next day, the test compounds and DMSO control were added into H1975 cell plate followed by incubation at 37C/5% CO2 for 4-5 hours. […] Then 5 μL of a donor bead mix was added to each well followed by overnight incubation at room temperature in dark. On the next day, the plate was read at a compatible plate reader to obtain pEGFR signal. Percent of pEGFR inhibition was plotted against log concentration of compounds to generate IC50 values.

T2 sequence (P00533 25-1210 T790M/L858R): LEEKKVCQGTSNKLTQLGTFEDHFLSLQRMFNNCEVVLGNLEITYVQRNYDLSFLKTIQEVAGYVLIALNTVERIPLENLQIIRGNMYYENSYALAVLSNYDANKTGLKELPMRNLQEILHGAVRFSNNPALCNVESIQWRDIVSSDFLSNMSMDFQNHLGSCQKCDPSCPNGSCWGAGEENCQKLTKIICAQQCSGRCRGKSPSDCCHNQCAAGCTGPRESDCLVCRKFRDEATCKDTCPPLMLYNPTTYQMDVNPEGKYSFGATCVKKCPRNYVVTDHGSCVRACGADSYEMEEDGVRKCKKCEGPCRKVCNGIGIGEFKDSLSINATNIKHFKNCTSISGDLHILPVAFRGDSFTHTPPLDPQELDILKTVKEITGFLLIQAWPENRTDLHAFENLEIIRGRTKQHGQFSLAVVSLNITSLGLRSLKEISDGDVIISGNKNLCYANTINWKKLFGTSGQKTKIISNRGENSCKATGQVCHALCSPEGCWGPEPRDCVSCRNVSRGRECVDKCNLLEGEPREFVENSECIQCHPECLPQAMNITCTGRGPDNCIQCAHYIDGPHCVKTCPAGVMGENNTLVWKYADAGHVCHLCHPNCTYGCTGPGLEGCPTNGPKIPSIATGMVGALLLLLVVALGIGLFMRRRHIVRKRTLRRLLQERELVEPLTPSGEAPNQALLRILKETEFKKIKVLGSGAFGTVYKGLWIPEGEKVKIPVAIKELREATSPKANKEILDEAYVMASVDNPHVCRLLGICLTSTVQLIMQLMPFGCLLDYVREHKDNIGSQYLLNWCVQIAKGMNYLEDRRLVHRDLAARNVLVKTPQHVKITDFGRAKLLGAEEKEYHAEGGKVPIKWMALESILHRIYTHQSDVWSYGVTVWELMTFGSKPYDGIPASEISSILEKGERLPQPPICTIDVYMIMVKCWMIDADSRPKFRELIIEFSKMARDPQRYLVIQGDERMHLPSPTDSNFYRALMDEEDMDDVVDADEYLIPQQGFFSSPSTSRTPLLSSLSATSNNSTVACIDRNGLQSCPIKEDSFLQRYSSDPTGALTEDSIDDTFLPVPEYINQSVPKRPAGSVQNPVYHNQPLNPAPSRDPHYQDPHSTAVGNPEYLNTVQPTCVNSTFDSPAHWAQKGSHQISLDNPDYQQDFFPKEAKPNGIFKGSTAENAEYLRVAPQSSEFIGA
T1 sequence (P00533 25-1210 T790M/C797S/L858R): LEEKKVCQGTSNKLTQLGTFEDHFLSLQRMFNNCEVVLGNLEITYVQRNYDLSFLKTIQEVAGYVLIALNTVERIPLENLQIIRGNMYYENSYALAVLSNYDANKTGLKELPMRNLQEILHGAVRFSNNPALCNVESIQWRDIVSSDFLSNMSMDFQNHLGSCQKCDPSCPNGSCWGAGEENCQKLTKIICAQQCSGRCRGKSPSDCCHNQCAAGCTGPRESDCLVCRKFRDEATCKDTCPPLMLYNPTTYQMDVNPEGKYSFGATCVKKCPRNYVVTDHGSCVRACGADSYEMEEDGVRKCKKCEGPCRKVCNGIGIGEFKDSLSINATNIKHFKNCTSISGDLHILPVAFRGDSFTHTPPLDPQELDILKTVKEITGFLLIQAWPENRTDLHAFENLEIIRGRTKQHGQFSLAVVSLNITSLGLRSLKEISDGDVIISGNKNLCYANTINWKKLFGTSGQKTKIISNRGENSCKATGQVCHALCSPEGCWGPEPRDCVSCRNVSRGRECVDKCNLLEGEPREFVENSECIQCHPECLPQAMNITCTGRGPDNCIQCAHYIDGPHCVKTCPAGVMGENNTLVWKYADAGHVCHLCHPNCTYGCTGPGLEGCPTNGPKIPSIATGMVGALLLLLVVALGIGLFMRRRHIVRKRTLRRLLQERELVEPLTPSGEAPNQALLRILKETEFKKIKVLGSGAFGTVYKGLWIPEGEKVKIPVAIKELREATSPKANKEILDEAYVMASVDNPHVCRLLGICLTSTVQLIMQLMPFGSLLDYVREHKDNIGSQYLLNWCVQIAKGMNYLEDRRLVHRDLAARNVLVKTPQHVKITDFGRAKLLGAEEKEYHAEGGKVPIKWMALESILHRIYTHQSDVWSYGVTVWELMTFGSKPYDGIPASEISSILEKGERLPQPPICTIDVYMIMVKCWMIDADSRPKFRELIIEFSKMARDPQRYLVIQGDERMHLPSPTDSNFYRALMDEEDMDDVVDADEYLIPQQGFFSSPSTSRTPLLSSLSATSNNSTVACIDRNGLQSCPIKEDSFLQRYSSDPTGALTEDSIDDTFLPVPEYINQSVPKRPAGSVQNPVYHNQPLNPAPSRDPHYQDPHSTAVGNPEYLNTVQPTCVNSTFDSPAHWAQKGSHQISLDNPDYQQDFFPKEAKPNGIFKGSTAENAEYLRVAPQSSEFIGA

SMILES | IC50 (EGFR (L858R T790M C797S)) [nM] | IC50 [1] [nM]
CC(C)c1cnc(NC[C@H](C)N(C)C)c2cnc(Nc3ccnc(N4CC[C@@H](O)[C@@](C)(F)C4)n3)cc12 (single isomer, unassigned) [Example 4, (3S,4R)-1-(4-((8-(((S)-2-(dimethylamino)propyl)amino)-5-isopropyl-2,7-naphthyridin-3-yl)amino)pyrimidin-2-yl)-3-fluoro-3-methylpiperidin-4-ol or (3S,4R)-1-(4-((8-(((R)-2-(dimethylamino)propyl)amino)-5-isopropyl-2,7-naphthyridin-3-yl)amino)pyrimidin-2-yl)-3-fluoro-3-methylpiperidin-4-ol] | 30 to 100 | > 50
[2H]C([2H])([2H])O[C@@H]1CCN(c2nccc(Nc3cc4c(C(C)C)ccc(OCCn5ccnc5)c4cn3)n2)C[C@@H]1F [Example 49, 8-(2-(1H-imidazol-1-yl)ethoxy)-N-(2-((3S,4R)-3-fluoro-4-(methoxy-d3)piperidin-1-yl)pyrimidin-4-yl)-5-isopropylisoquinolin-3-amine] | 15 to 20 | > 50
CC(C)c1cnc(C(=O)N[C@@H]2CNC[C@H]2F)c2cnc(Nc3ccnc(N4CC[C@@H](O)[C@@](C)(F)C4)n3)cc12 (racemic) [Example 86, 6-((2-((3S,4R)-3-fluoro-4-hydroxy-3-methylpiperidin-1-yl)pyrimidin-4-yl)amino)-N-((3R,4R)-4-fluoropyrrolidin-3-yl)-4-isopropyl-2,7-naphthyridine-1-carboxamide trifluoroacetate and 6-((2-((3S,4R)-3-fluoro-4-hydroxy-3-methylpiperidin-1-yl)pyrimidin-4-yl)amino)-N-((3S,4S)-4-fluoropyrrolidin-3-yl)-4-isopropyl-2,7-naphthyridine-1-carboxamide trifluoroacetate] | 20 to 30 | > 50
CC(C)c1ccc(OCCc2cnnn2C)c2cnc(Nc3ccnc(N4CC[C@](C)(O)[C@H](F)C4)n3)cc12 [Example 35, (3R,4S)-3-fluoro-1-(4-((5-isopropyl-8-(2-(1-methyl-1H-1,2,3-triazol-5-yl)ethoxy)isoquinolin-3-yl)amino)pyrimidin-2-yl)-4-methylpiperidin-4-ol] | 15 to 20 | 30 to 50
CNCCO[C@@H]1CCN(c2nccc(Nc3cc4c(C(C)C)ccc(OC[C@@H]5COC(=O)N5C)c4cn3)n2)C[C@@H]1F [Example 54, (R)-4-(((3-((2-((3S,4R)-3-fluoro-4-(2-(methylamino)ethoxy)piperidin-1-yl)pyrimidin-4-yl)amino)-5-isopropylisoquinolin-8-yl)oxy)methyl)-3-methyloxazolidin-2-one] | 15 to 20 | > 50
CC(C)c1ccc(OC[C@@H]2CCC(=O)N2C)c2cnc(Nc3ccnc(N4CC[C@](C)(O)[C@H](F)C4)n3)cc12 [Example 33, (S)-5-(((3-((2-((3R,4S)-3-fluoro-4-hydroxy-4-methylpiperidin-1-yl)pyrimidin-4-yl)amino)-5-isopropylisoquinolin-8-yl)oxy)methyl)-1-methylpyrrolidin-2-one] | 15 to 20 | 30 to 50
CC(C)c1ccc(OC[C@H]2CCC(=O)N2C)c2cnc(Nc3ccnc(N4CC[C@](C)(O)[C@H](F)C4)n3)cc12 [Example 25, (R)-5-(((3-((2-((3R,4S)-3-fluoro-4-hydroxy-4-methylpiperidin-1-yl)pyrimidin-4-yl)amino)-5-isopropylisoquinolin-8-yl)oxy)methyl)-1-methylpyrrolidin-2-one] | 15 to 20 | > 50
CC(C)c1ccc(OCCn2ccnc2)c2cnc(Nc3ccnc(N4CC[C@@](C)(O)[C@@H](F)C4)n3)cc12 [Example 12, (3S,4R)-1-(4-((8-(2-(1H-imidazol-1-yl)ethoxy)-5-isopropylisoquinolin-3-yl)amino)pyrimidin-2-yl)-3-fluoro-4-methylpiperidin-4-ol] | < 15 | > 50
CC(C)c1ccc(OC[C@@H]2CC(=O)N(C)C2)c2cnc(Nc3ccnc(N4CC[C@@H](O)[C@@](C)(F)C4)n3)cc12 (single isomer, unassigned) [Example 20] | < 15 | 10 to 20
CC(C)c1ccc(OC[C@@H]2COC(=O)N2C)c2cnc(Nc3ccnc(N4CC[C@@H](OCCN(C)C)[C@@H](F)C4)n3)cc12 [Example 53, (R)-4-(((3-((2-((3S,4R)-4-(2-(dimethylamino)ethoxy)-3-fluoro-piperidin-1-yl)pyrimidin-4-yl)amino)-5-isopropylisoquinolin-8-yl)oxy)methyl)-3-methyloxazolidin-2-one] | 15 to 20 | > 50

More lines, now with the values ahead:

IC50 (EGFR (L858R T790M C797S)) [nM] | IC50 [1] [nM] | SMILES
< 15 | < 10 | CC(=O)N1CC([C@@H](C)Oc2ccc(C(C)C)c3cc(Nc4ccnc(N5CC[C@@H](O)[C@@](C)(F)C5)n4)ncc23)C1 (single isomer, unassigned) [Example 24, 1-(3-((R)-1-((3-((2-((3S,4R)-3-fluoro-4-hydroxy-3-methylpiperidin-1-yl)pyrimidin-4-yl)amino)-5-isopropylisoquinolin-8-yl)oxy)ethyl)azetidin-1-yl)ethan-1-one or 1-(3-((S)-1-((3-((2-((3S,4R)-3-fluoro-4-hydroxy-3-methylpiperidin-1-yl)pyrimidin-4-yl)amino)-5-isopropylisoquinolin-8-yl)oxy)ethyl)azetidin-1-yl)ethan-1-one]
< 15 | 10 to 20 | CC(C)c1cnc(NCCS(C)(=O)=O)c2cnc(Nc3ccnc(N4CC[C@@H](O)[C@@](C)(F)C4)n3)cc12 [Example 2, (3S,4R)-3-fluoro-1-(4-((5-isopropyl-8-((2-(methylsulfonyl)ethyl)amino)-2,7-naphthyridin-3-yl)amino)pyrimidin-2-yl)-3-methylpiperidin-4-ol]
< 15 | 30 to 50 | CO[C@@H]1CCN(c2nccc(Nc3cc4c(C(C)C)ccc(OCC5CN(C(C)=O)C5)c4cn3)n2)C[C@@H]1O (single isomer, unassigned) [Example 56, 1-(3-(((3-((2-((3S,4R)-3-hydroxy-4-methoxypiperidin-1-yl)pyrimidin-4-yl)amino)-5-isopropylisoquinolin-8-yl)oxy)methyl)azetidin-1-yl)ethan-1-one or 1-(3-(((3-((2-((3R,4S)-3-hydroxy-4-methoxypiperidin-1-yl)pyrimidin-4-yl)amino)-5-isopropylisoquinolin-8-yl)oxy)methyl)azetidin-1-yl)ethan-1-one]
< 15 | 20 to 30 | CC(C)c1ccc(OCCn2cnnc2)c2cnc(Nc3ccnc(N4CC[C@@](C)(O)[C@@H](F)C4)n3)cc12 [Example 28, (3S,4R)-1-(4-((8-(2-(4H-1,2,4-triazol-4-yl)ethoxy)-5-isopropylisoquinolin-3-yl)amino)pyrimidin-2-yl)-3-fluoro-4-methylpiperidin-4-ol]
< 15 | > 50 | CC(C)c1ccc(OCCn2ccnn2)c2cnc(Nc3ccnc(N4CC[C@](C)(O)[C@H](F)C4)n3)cc12 [Example 32, (3R,4S)-1-(4-((8-(2-(1H-1,2,3-triazol-1-yl)ethoxy)-5-isopropylisoquinolin-3-yl)amino)pyrimidin-2-yl)-3-fluoro-4-methylpiperidin-4-ol]
< 15 | 30 to 50 | CC(C)c1ccc(OCCn2cncn2)c2cnc(Nc3ccnc(N4CCC(C)(O)CC4)n3)cc12 [Example 15, 1-(4-((8-(2-(1H-1,2,4-triazol-1-yl)ethoxy)-5-isopropylisoquinolin-3-yl)amino)pyrimidin-2-yl)-4-methylpiperidin-4-ol]

Reference: patent US20240299387A1, “HETEROCYCLIC EGFR INHIBITORS FOR USE IN THE TREATMENT OF CANCER” (Blueprint Medicines Corporation, priority 2021, published 2024)
